“Also recorded” adds a separate entry of the source.
How the values were obtained:
[1] = target: T1, wild type PPAR gamma (cdk5-mediated phosphorylation) (Mus musculus, UniProt P37238); assay: TNF-α-induced phosphorylation of PPAR gamma in 3T3-L1 adipocytes expressing wild type PPAR gamma; format: cell-based; details: combined with rosiglitazone, FIG. 5A
T1 construct: expressed in transfected cells; host or cells: 3T3-L1 adipocytes
T1 sequence (P37238 1-505): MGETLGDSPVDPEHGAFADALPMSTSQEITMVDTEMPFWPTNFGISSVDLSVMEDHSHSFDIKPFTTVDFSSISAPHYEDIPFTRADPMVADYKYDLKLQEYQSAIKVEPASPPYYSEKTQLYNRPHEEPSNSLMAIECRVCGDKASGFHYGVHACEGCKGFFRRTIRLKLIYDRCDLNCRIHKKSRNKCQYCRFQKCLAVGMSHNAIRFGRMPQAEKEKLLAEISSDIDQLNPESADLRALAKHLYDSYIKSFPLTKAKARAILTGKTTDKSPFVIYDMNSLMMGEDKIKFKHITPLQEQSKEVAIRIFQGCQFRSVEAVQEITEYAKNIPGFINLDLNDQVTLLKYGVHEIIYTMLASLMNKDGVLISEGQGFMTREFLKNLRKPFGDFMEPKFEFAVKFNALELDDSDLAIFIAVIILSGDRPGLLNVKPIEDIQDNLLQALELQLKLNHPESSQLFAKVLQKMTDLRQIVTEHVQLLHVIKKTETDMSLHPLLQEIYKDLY
Protocol: HEK-293 cells expressing CDK5 or PPAR gamma were collected after transfection. Total cell lysates were incubated with FLAG M2 agarose (Sigma) at 4° C. Immunoprecipitates or total cell lysates were analyzed with anti-CDK substrate, FLAG or HA (Roche) antibodies. Differentiated 3T3-L1 adipocytes were treated with TNF-α (50 ng/ml), IL-6 (50 ng/ml), IL-10 (50 ng/ml) or FFAs (400 μM palmitic acid and oleic acid mixtures) for the indicated times, and cell lysates were analyzed with phospho-specific or PPAR gamma antibodies. 3T3-L1 adipocytes were pre-treated with various PPAR gamma ligands, and incubated with TNF-α. For tissue lysates, WAT from mice was homogenized in RIPA buffer (50 mM Tris pH7.5, 150 mM NaCl, 1% NP-40, 0.5% sodium deoxycholate, 0.1% SDS with protease and phosphatase inhibitors). […] Total tissue lysates were analyzed with anti-PPAR gamma, phospho-CDK5 (Y15), CDK5 and p35 antibodies (Santa Cruz).

[2] = test system: adipogenesis; details: cited from earlier work
[3] = target: T2, cdk5-mediated phosphorylation of PPAR gamma (serine 273) (Mus musculus, UniProt P37238); assay: In vitro CDK5 kinase assay with cdk5/p35 and PPAR gamma as substrate; format: biochemical, murine; details: FIG. 5B, FIG. 6
T2 construct: FLAG (N); made in house
T2 sequence (P37238 1-505): T1 sequence (P37238 1-505)
Protocol: Kinase assays were performed using an active cdk5/p35 protein and recombinant PPAR gamma protein as a substrate in kinase buffer in the presence of ATP. The reaction was stopped by adding sample buffer. Samples were then subjected to SDS-PAGE, and detected by CDK substrate antibody. In particular, active cdk5/p35, cdk1/cdc2, cdk2/cyclin A, cdk2/cyclin E or cdk4/cyclin D1 kinases were purchased from Millipore or Cell Signaling Technology. In vitro CDK kinase assay was performed according to the manufacturer's instructions (Cell Signaling Technology). […] Positive control for assay, purified histone H1 (Millipore) or Rb (Cell Signaling Technology) were used. Several PPAR gamma ligands were pre-incubated with substrates for 30 min, and the assay was performed. Phosphorylation of substrates after SDS-PAGE was analyzed with anti-CDK substrate antibody (Cell Signaling Technology).

[4] = target: T3, cdk5 (Rb protein as substrate) (Homo sapiens, UniProt Q00535); assay: In vitro CDK5 kinase assay with Rb as substrate; format: biochemical; details: selectivity control
T3 construct: purchased Millipore or Cell Signaling Technology
Protocol: Kinase assays were performed using an active cdk5/p35 protein and recombinant PPAR gamma protein as a substrate in kinase buffer in the presence of ATP. The reaction was stopped by adding sample buffer. Samples were then subjected to SDS-PAGE, and detected by CDK substrate antibody. In particular, active cdk5/p35, cdk1/cdc2, cdk2/cyclin A, cdk2/cyclin E or cdk4/cyclin D1 kinases were purchased from Millipore or Cell Signaling Technology. In vitro CDK kinase assay was performed according to the manufacturer's instructions (Cell Signaling Technology). Briefly, 1 μg of immuno-purified WT or S273A mutant of PPAR gamma were incubated with active CDK kinase in kinase assay buffer (25 mM Tris-HCl pH 7.5, 5 mM beta-glycerophosphate, 2 mM dithiothreitol (DTT), 0.1 mM Na3VO4, 10 mM MgCl2) containing 20 μM ATP for 15 min at 30° C. Positive control for assay, purified histone H1 (Millipore) or Rb (Cell Signaling Technology) were used. Several PPAR gamma ligands were pre-incubated with substrates for 30 min, and the assay was performed. Phosphorylation of substrates after SDS-PAGE was analyzed with anti-CDK substrate antibody (Cell Signaling Technology).

[5] = test system: high-fat fed mice; assay: Glucose tolerance, fasting insulin and body weight in high-fat fed mice; details: 10 mg/kg for 7 days
Protocol: 4 to 5-week old male C57BL/6J mice were obtained from the Jackson Laboratory. Mice were fed a regular diet (10% kcal fat, D12450B, Research Diets Inc.) or a high fat diet (60% kcal fat, D12492, Research Diets Inc.) as indicated time periods. […] Glucose was measured in tail vain blood at intervals after glucose injection using a Truetrack glucometer. Serum insulin concentrations were determined by ELISA (Crystal Chem).

[6] = test system: mice; details: Acton et al. 2005; cited from earlier work
[7] = target: T4, cdk5-mediated phosphorylation of PPAR gamma in adipose tissue (Mus musculus, UniProt P37238); assay: Phosphorylation of PPAR gamma in adipose tissue (WAT) of treated high-fat fed mice; format: in vivo; details: 10 mg/kg for 7 days, FIG. 9D
T4 construct: For tissue lysates, WAT from mice was homogenized in RIPA buffer; from tissue; host or cells: white adipose tissue of C57BL/6J mice on high fat diet
T4 sequence (P37238 1-505): T1 sequence (P37238 1-505)
Protocol: For tissue lysates, WAT from mice was homogenized in RIPA buffer (50 mM Tris pH7.5, 150 mM NaCl, 1% NP-40, 0.5% sodium deoxycholate, 0.1% SDS with protease and phosphatase inhibitors). […] Total tissue lysates were analyzed with anti-PPAR gamma, phospho-CDK5 (Y15), CDK5 and p35 antibodies (Santa Cruz). Phosphorylation of PPAR gamma on Ser112 or Ser273 was detected by phospho-specific antibodies (Ser112, Millipore, MAB3632).
4 to 5-week old male C57BL/6J mice were obtained from the Jackson Laboratory.

[8] = target: T5, PPAR gamma (PPAR transcriptional response element) (Mus musculus, UniProt P37238); assay: Reporter gene assay, PPAR-derived reporter gene in HEK-293 cells; format: cell-based
T5 construct: expressed in transfected cells; host or cells: HEK-293
T5 sequence (P37238 1-505): T1 sequence (P37238 1-505)
T5 sequence (P19793 1-462 partner): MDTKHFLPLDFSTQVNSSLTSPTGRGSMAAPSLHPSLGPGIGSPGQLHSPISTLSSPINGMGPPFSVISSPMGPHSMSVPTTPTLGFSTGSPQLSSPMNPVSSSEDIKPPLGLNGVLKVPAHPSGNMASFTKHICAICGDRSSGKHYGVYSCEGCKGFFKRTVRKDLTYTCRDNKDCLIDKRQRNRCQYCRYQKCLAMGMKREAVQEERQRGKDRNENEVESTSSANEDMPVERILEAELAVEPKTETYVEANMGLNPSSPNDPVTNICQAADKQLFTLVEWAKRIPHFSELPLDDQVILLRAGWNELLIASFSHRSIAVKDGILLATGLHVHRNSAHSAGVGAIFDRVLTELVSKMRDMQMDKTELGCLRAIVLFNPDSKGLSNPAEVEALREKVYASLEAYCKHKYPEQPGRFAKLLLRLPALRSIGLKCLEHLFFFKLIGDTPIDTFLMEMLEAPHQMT
Protocol: In some examples, HEK-293 cells were seeded in 12-well plates at 1.5×10^5 cells/well. HEK-293 cells were transfected with pDR-1 (3×, based on the UCP1 PPAR gamma recognition site)-luciferase reporter plasmid, PPAR gamma, RXRa and pRL-renillin using Lipofectamine 2000 (Invitrogen). […] The cells were harvested and reporter gene assays were carried out using the Dual-Luciferase kit (Promega). Luciferase activity was normalized to renillia activity.

[9] = test system: mice; assay: Whole body oxygen consumption (CLAMS) in treated mice; format: in vivo; details: 10 mg/kg for 10 days
[10] = test system: PPAR gamma-null fibroblasts expressing WT PPAR gamma; assay: Microarray analysis of differentiated PPAR gamma-null fibroblasts expressing wild type PPAR gamma; format: cell-based, mouse; details: 1 μM, 24 hours; FIG. 5F
From the text: To create refined gene sets regulated by cdk5 phosphorylation of PPAR gamma, p-value as well as fold-change of gene expression in WT versus S273A mutant cells was first calculated, and—log p-value versus log2 fold-change was plotted.

[11] = target: T6, PPAR gamma (TNF-α-mediated phosphorylation) (Mus musculus, UniProt P37238); assay: TNF-α-induced phosphorylation of PPAR gamma in HEK-293 cells; format: cell-based; details: 30 nM; FIG. 5E
T6 construct: expressed in transfected cells; host or cells: HEK-293
T6 sequence (P37238 1-505): T1 sequence (P37238 1-505)
Protocol: HEK-293 cells expressing CDK5 or PPAR gamma were collected after transfection. Total cell lysates were incubated with FLAG M2 agarose (Sigma) at 4° C. Immunoprecipitates or total cell lysates were analyzed with anti-CDK substrate, FLAG or HA (Roche) antibodies. Differentiated 3T3-L1 adipocytes were treated with TNF-α (50 ng/ml), IL-6 (50 ng/ml), IL-10 (50 ng/ml) or FFAs (400 μM palmitic acid and oleic acid mixtures) for the indicated times, and cell lysates were analyzed with phospho-specific or PPAR gamma antibodies. 3T3-L1 adipocytes were pre-treated with various PPAR gamma ligands, and incubated with TNF-α. […] Phosphorylation of PPAR gamma on Ser112 or Ser273 was detected by phospho-specific antibodies (Ser112, Millipore, MAB3632).

T3 sequence (Q00535 whole entry, species assumed): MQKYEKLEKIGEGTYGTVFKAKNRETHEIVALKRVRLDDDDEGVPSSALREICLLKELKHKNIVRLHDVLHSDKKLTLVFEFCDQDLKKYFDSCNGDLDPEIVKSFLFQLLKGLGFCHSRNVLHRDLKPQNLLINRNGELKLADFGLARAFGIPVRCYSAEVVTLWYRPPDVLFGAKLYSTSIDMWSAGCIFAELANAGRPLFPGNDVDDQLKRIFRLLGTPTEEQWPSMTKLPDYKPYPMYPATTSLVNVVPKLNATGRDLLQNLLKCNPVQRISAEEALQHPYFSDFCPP
T3 sequence (Q15078 whole entry partner, species assumed): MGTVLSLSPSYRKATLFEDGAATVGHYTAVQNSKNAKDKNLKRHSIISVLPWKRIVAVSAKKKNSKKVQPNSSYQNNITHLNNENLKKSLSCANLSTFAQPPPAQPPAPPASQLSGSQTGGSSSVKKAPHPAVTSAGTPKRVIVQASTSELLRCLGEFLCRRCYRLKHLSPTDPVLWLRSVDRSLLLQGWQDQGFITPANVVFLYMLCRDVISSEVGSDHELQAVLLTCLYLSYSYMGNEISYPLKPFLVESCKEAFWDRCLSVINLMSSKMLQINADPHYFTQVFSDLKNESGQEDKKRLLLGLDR

**Q.** Which “effect of antagonist on rosiglitazone inhibition of PPAR gamma phosphorylation” value [1] does the source give for `O=C(Nc1ccccc1)c1cc([N+](=O)[O-])ccc1Cl` [GW 9662] here?
**A.** Its value is “completely blocked this effect of rosiglitazone”.

**Q.** With `COc1ccc(C(=O)n2c(C)c(Cc3cccc(O[C@@H](C)C(=O)O)c3)c3cc(OC(F)(F)F)ccc32)cc1` [MRL24] as the molecule, how does the “ability to promote adipogenesis” value [2] read?
**A.** The value was “virtually no ability to promote adipogenesis”.

**Q.** And the “blocking of cdk5-mediated phosphorylation of PPAR gamma” value [3]?
**A.** The value was “very effective at blocking the cdk5-mediated phosphorylation of PPAR gamma”.

**Q.** What about the “inhibition of cdk5 phosphorylation of Rb” value [4] of the same molecule?
**A.** The value was “retained full ability to phosphorylate Rb”.

**Q.** What about the fasting insulin levels [5] of the same molecule?
**A.** The fasting insulin levels was “reduced fasting insulin levels”.

**Q.** What about the glucose tolerance [5] of the same molecule?
**A.** Its glucose tolerance is “dramatically improved glucose tolerance”.

**Q.** And the anti-diabetic activity [6]?
**A.** The anti-diabetic activity was “excellent anti-diabetic activity in mice”.

**Q.** And the “cdk5-mediated phosphorylation of PPAR gamma in adipose tissue” value [7]?
**A.** Its value is “reduced the cdk5-mediated phosphorylation of PPAR gamma in the adipose tissue of every mouse”.

**Q.** And the “agonist activity on PPAR gamma at 30 nM” value ([8]; 30 nM, same cells as phosphorylation test)?
**A.** The value was “essentially undetectable agonist activity”.

**Q.** What about the “agonist activity on a PPAR transcriptional response element” value ([8]; compared to rosiglitazone) of the same molecule?
**A.** Its value is “very weak agonist activity; also recorded: only a small fraction of the agonist activity of rosiglitazone”.

**Q.** And the “whole body oxygen consumption” value [9]?
**A.** The value was “selectively increase whole body oxygen consumption in vivo”.

**Q.** What about the “expression of gene cluster "c" (genes increased by the cdk5 site mutation)” value [10] of the same molecule?
**A.** Its value is “corresponded remarkably well to the gene set induced by the mutation in the cdk5 site of PPAR gamma”.

**Q.** What about the “expression of gene group "a" (genes activated by cdk5 phosphorylation of PPAR gamma)” value [10] of the same molecule?
**A.** Its value is “suppressed”.

**Q.** And the “block of TNF-α-mediated phosphorylation of PPAR gamma” value [11]?
**A.** Its value is “blocked the TNF-α-mediated phosphorylation of PPAR gamma essentially completely”.

**Q.** For `CN(CCOc1ccc(CC2SC(=O)NC2=O)cc1)c1ccccn1` (stereo not drawn) [rosiglitazone], which body weight [5] is on record?
**A.** Its body weight is “without inducing changes in body weight”.
